Assay results taken from BindingDB's records for doi:10.1023/a:1006986824213 (1999).
Counter-ions that a name gives are not always drawn.

Experiments:
[1] = biological target: Beta-2 adrenergic receptor (Rattus norvegicus, UniProt P10608)
Histamine H1 receptor = Histamine H1 receptor (Rattus norvegicus, UniProt P31390)
D(1A) dopamine receptor = D(1A) dopamine receptor (Rattus norvegicus, UniProt P18901)
[2] = biological target: T1, Alpha-1A adrenergic receptor (Rattus norvegicus, UniProt P43140)
T1 sequence (P43140 whole entry): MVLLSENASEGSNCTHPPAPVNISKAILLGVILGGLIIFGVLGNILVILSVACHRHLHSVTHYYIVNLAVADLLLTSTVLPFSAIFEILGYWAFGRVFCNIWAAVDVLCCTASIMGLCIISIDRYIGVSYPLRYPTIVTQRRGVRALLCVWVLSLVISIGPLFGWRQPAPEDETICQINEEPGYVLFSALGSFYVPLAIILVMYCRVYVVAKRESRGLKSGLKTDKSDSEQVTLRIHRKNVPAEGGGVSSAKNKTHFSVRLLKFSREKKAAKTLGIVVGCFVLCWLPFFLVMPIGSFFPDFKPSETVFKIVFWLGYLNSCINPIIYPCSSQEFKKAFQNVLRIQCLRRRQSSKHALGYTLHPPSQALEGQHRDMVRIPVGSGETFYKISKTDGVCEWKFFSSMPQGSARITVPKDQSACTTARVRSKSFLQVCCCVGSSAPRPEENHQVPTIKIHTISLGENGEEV

[3] = biological target: T2, Muscarinic acetylcholine receptor M2 (Rattus norvegicus, UniProt P10980)
T2 sequence (P10980 whole entry): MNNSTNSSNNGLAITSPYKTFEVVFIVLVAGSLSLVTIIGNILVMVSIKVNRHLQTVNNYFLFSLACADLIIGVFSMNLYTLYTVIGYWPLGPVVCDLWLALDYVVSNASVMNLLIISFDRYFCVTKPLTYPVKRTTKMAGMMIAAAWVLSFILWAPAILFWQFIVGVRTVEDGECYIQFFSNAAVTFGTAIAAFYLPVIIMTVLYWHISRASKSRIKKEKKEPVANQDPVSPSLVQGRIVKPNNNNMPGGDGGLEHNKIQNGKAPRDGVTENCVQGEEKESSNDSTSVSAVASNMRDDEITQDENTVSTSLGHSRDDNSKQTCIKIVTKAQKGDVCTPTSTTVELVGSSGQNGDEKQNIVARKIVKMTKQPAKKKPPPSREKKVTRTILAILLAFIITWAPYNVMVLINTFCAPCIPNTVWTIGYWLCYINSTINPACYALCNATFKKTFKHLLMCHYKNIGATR

D(2) dopamine receptor = D(2) dopamine receptor (Rattus norvegicus, UniProt P61169)
D(2) dopamine receptor, sequence (P61169 whole entry): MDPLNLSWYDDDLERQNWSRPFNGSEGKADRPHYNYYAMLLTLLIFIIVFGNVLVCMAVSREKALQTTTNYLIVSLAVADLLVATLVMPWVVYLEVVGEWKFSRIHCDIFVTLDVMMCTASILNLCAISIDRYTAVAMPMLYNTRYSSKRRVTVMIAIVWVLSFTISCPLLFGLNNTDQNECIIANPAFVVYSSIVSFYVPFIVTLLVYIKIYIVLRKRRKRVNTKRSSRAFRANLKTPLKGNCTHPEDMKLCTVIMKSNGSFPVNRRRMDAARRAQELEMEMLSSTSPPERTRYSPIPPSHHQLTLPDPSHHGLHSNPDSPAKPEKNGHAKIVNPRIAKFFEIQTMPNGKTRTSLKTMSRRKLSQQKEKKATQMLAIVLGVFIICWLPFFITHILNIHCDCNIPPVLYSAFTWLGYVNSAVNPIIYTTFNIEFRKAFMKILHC

[4] = biological target: T3, 5-hydroxytryptamine receptor 1A (Rattus norvegicus, UniProt P19327)
T3 sequence (P19327 whole entry): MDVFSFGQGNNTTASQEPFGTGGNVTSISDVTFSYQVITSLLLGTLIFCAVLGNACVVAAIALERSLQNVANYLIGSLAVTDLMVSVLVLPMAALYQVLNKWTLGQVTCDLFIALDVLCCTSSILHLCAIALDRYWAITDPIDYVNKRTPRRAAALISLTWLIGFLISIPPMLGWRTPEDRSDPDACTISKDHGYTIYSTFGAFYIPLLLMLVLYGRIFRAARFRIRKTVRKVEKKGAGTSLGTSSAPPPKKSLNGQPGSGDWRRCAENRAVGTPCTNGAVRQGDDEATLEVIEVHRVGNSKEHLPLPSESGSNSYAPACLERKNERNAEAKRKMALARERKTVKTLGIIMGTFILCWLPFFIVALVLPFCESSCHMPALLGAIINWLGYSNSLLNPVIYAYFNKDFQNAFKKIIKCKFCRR

[5] = biological target: T4, 5-hydroxytryptamine receptor 2C (Rattus norvegicus, UniProt P08909)
T4 sequence (P08909 whole entry): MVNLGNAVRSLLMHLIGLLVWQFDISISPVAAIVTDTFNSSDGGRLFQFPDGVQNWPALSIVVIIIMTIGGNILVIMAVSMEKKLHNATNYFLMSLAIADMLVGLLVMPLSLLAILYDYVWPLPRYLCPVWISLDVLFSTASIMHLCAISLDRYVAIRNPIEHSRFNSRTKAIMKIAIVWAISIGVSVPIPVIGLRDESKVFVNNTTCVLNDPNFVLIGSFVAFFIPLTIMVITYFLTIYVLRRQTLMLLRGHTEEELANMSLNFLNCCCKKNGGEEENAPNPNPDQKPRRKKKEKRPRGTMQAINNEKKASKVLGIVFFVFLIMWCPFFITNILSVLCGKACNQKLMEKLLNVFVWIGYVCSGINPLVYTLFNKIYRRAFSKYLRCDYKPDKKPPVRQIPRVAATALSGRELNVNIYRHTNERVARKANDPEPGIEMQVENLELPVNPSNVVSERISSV

[6] = biological target: T5, Alpha-2C adrenergic receptor (Rattus norvegicus, UniProt P22086)
T5 sequence (P22086 whole entry): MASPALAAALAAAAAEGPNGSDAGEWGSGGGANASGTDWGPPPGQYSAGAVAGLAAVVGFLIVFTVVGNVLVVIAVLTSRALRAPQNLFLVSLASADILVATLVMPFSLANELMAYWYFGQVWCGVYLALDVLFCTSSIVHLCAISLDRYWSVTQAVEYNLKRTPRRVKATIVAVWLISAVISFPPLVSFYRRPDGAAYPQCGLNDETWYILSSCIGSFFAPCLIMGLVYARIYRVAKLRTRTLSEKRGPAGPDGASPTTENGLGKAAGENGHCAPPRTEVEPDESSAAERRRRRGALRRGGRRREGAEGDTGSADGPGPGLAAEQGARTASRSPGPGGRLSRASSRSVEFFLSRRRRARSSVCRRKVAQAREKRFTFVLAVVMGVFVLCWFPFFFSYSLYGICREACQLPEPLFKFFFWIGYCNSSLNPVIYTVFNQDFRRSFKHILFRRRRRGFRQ

[7] = biological target: Sodium-dependent dopamine transporter (Rattus norvegicus, UniProt P23977)
Sodium-dependent dopamine transporter, sequence (P23977 whole entry): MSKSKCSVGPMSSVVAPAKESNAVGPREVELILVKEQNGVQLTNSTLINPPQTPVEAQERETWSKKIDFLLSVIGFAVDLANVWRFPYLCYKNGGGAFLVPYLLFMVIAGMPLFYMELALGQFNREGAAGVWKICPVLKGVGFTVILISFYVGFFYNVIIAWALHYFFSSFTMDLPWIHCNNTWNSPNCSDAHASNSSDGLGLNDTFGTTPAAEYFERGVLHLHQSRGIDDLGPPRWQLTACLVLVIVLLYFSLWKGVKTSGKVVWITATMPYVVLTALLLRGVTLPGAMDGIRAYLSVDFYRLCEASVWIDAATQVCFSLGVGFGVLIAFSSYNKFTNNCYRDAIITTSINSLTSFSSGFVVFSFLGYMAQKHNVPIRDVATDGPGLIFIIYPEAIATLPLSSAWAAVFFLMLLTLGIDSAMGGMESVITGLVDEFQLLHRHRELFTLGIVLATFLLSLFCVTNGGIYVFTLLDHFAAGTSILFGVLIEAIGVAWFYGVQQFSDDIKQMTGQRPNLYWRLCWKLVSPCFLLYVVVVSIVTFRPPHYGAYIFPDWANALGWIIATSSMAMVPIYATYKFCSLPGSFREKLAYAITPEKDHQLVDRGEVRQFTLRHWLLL

[8] = biological target: Norepinephrine transporter (Rattus norvegicus, UniProt Q9JIA2)
[9] = biological target: 5-hydroxytryptamine receptor 2A (Rattus norvegicus, UniProt P14842)
5-hydroxytryptamine receptor 2A, sequence (P14842 whole entry): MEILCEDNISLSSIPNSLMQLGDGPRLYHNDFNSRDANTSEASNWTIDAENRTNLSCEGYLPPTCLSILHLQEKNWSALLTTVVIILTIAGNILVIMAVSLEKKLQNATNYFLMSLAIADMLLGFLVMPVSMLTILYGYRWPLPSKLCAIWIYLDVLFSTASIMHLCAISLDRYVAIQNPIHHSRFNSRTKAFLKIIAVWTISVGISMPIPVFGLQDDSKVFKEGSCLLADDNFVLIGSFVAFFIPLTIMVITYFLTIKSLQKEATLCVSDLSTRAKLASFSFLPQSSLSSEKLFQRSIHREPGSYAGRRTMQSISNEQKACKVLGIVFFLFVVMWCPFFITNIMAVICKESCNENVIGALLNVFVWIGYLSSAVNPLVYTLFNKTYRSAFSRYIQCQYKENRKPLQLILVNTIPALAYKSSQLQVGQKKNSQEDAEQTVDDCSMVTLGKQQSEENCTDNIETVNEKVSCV

[10] = biological target: Sodium-dependent serotonin transporter (Rattus norvegicus, UniProt P31652)
Sodium-dependent serotonin transporter, sequence (P31652 whole entry): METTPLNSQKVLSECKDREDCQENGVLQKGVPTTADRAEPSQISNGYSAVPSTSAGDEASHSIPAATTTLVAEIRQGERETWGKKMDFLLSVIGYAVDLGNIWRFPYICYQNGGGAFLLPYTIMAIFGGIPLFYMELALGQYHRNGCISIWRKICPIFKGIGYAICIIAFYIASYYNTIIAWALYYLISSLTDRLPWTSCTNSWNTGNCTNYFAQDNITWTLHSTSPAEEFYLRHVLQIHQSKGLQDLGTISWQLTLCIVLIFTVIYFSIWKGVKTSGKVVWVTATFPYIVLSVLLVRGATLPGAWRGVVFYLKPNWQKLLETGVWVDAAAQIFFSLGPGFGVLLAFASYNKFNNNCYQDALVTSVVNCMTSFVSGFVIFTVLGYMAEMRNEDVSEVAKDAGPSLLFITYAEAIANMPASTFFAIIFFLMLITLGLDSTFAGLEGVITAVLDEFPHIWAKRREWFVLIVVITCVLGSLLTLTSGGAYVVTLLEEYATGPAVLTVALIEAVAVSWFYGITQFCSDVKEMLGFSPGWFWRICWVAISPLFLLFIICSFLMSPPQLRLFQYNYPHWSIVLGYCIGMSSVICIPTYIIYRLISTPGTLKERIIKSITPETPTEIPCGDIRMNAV

Beta-2 adrenergic receptor, sequence (P10608 whole entry): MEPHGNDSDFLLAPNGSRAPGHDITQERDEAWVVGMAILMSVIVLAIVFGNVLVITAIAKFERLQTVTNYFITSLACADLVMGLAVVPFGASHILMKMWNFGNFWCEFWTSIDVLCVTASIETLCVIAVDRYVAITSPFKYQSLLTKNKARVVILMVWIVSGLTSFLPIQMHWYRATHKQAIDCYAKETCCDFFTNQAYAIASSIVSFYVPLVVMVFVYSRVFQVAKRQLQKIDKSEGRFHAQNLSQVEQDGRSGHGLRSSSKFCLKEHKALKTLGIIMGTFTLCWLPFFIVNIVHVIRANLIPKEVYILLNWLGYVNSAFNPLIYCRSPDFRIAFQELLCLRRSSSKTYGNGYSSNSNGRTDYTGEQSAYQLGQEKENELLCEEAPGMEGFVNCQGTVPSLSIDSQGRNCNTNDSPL
Histamine H1 receptor, sequence (P31390 whole entry): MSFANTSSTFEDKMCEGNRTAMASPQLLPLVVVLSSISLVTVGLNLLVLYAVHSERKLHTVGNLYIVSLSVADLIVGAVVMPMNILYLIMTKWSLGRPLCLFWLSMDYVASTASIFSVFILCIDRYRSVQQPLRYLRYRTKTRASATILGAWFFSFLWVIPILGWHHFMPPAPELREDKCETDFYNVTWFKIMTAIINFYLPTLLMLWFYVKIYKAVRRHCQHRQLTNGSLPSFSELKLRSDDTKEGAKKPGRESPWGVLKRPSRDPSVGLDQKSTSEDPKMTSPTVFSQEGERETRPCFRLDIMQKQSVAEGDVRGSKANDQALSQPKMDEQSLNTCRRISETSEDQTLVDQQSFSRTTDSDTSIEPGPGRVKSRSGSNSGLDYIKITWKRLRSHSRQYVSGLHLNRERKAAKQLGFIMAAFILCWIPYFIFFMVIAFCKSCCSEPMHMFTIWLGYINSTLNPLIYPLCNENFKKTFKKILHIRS
D(1A) dopamine receptor, sequence (P18901 whole entry): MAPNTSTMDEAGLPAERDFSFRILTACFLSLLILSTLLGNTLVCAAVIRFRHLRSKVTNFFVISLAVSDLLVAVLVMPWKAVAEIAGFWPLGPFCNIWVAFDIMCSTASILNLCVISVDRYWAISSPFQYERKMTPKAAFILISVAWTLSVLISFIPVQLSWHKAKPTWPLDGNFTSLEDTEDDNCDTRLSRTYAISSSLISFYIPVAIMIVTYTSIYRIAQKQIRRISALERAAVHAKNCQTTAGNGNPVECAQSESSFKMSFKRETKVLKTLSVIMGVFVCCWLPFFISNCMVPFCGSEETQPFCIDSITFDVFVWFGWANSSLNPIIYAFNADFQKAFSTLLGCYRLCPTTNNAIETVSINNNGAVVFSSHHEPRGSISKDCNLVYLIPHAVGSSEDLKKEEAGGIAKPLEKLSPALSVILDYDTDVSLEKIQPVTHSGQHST

| Structure (SMILES) | Ki [1] [nM] | Ki (Histamine H1 receptor) [nM] | Ki (D(1A) dopamine receptor) [nM] | Ki [2] [nM] | Ki [3] [nM] | Ki (D(2) dopamine receptor) [nM] | Ki [4] [nM] | Ki [5] [nM] | Ki [6] [nM] | Ki [7] [nM] | Ki [8] [nM] | Ki [9] [nM] | Ki [10] [nM] |
| --- | --- | --- | --- | --- | --- | --- | --- | --- | --- | --- | --- | --- | --- |
| CN[C@@H]1CC[C@@H](c2ccc(Cl)c(Cl)c2)c2ccccc21 [[4-(3,4-Dichloro-phenyl)-1,2,3,4-tetrahydro-naphthalen-1-yl]-methyl-amine] | > 10000 | > 10000 | 6300 | 2800 | 1100 | > 10000 | > 10000 |  |  |  |  |  |  |
| CN(C)CCCC1(c2ccc(F)cc2)OCc2cc(C#N)ccc21 (stereo unspecified) [CITALOPRAM HYDROBROMIDE] | > 10000 |  | > 10000 |  | 5600 | > 10000 | > 10000 | 630 | > 10000 |  |  |  |  |
| CCc1nn(CCCN2CCN(c3cccc(Cl)c3)CC2)c(=O)n1CCOc1ccccc1 [2-{3-[4-(3-chlorophenyl)piperazin-1-yl]propyl}-5-ethyl-4-(2-phenoxyethyl)-2,4-dihydro-3H-1,2,4-triazol-3-one] | > 10000 | 370 | 1500 | 42 | > 10000 |  | 1000 |  | 1200 | 470 | 110 |  |  |
| COc1ccc(C(CN(C)C)C2(O)CCCCC2)cc1 (stereo unspecified) [NSC_62923] |  | > 10000 | > 10000 |  | > 10000 | > 10000 | > 10000 | > 10000 | > 10000 |  |  |  |  |
| CN(CCCN1c2ccccc2CCc2ccccc21)CC(=O)c1ccc(Cl)cc1 [CAS_23047-25-8] | > 10000 | 1000 | 500 | 620 | 300 | 6700 | > 10000 |  | 2100 | 3300 | 2.7 | 1200 | 880 |
| CNCC[C@@H](Oc1ccc(C(F)(F)F)cc1)c1ccccc1 [Prozac] | > 10000 | 3200 | > 10000 |  |  | > 10000 |  |  |  |  |  |  |  |
| Fc1ccc([C@@H]2CCNC[C@H]2COc2ccc3c(c2)OCO3)cc1 [PAROXETINE] | > 10000 | > 10000 | > 10000 | > 10000 | 210 | > 10000 | > 10000 | > 10000 | 8900 |  |  |  |  |
| COCCCC/C(=N\OCCN)c1ccc(C(F)(F)F)cc1 [(1E)-5-methoxy-1-[4-(trifluoromethyl)phenyl]pentan-1-one O-(2-aminoethyl)oxime] | > 10000 | > 10000 | > 10000 | 4800 | > 10000 | > 10000 | > 10000 | 6700 | 1900 | > 10000 | 620 | > 10000 |  |
| CC(NC(C)(C)C)C(=O)c1cccc(Cl)c1 (stereo unspecified) [BUPROPION HYDROCHLORIDE] | > 10000 |  | > 10000 | > 10000 | > 10000 | > 10000 |  | > 10000 | > 10000 | 570 | 1400 |  |  |
| CN(C)CCC=C1c2ccccc2CSc2ccccc21 [CAS_897-15-4] |  | 4 |  | 419 | 26 |  | 4000 |  | 12 | 5180 | 70 | 152 |  |
| CN(C)CCC=C1c2ccccc2CCc2ccccc21 | > 10000 | 8.3 | 81 | 69 | 8.9 | 850 | > 10000 | 8 | 340 | 5300 | 24 | 11 |  |
